“Also recorded” adds a separate entry of the source. Non-standard residues stand in square brackets, D forms with d. Residues, ends and D or L forms follow the SMILES beside them. *: point of attachment. Malonyl(2,2-Me2,histaminyl) = CC(C)(C(=O)NCCc1cnc[nH]1)C(=O)*; Ala(1H-tetrazol-5-yl) = N[C@@H](Cc1nnn[nH]1)C(=O)O; Nle = CCCC[C@H](N)C(=O)O; Alloc = C=CCOC(=O)*
Columns and labels:
[1] = system: C57BL/6J male mice; experiment: Effect on glucose tolerance (OGTT) in normal mice (FIG. 3); assay type: in vivo, mouse; conditions: mice fasted 6 h, 270 nmol/kg sc 1 hour before 2 g/kg oral glucose (liraglutide 200 ug/kg iv)
Description: One hour before glucose challenge, Example 1 or 3 (270 nmol/kg) or vehicle (0.1% Tween80 in PBS) was administered as a single subcutaneous injection. […] Serial blood glucose measurements were taken at baseline and at timepoints post oral glucose challenge. (A) Time course of blood glucose levels. N=6 animals / grp. Mean +/-SEM.
C57BL/6J male mice (Charles River, Italy, ~8w) are fasted for 6 hours on the day of testing with free access to drinking water. Prior to drug dosing, pre-dose blood glucose measurements are taken using a glucometer (ACCU-CHEK performa, Roche Diagnostic GmbH). Animals are dosed with either the vehicle (0.1% Tween80 in PBS) or compound (270 nmol/kg) via subcutaneous injection. […] 1 hour after dosing, mice are given 2 g/kg oral gavage of glucose and blood is sampled at defined time points for analysis of blood glucose levels. Timepoints of sampling: t=0 (prior to glucose dosing), 15 mins, 30 mins, 60 mins, 120 mins and 180 mins.

[2] = system: C57BL/6J male mice; experiment: Dose response effect on intestinal mass in normal mice, 7 day dosing (FIG. 2); assay type: in vivo, mouse; conditions: daily sc
Description: The enhancement of the small bowel wet weight (over vehicle) is plotted as a function of the peptide dose. […] N=6 animals I grp.
C57BL/6J male mice (Charles River, Italy, ~8 weeks) are randomly allocated to the treatment group based on the baseline body weights. Animals are given free access to food and water during the whole duration of the study. Mice are dosed daily with the vehicle or test peptides via subcutaneous injection. On day 7, animals are sacrificed and segments from the upper small intestine (15 cm segment from the pylorus) are collected and weighed (see Example B).

[3] = system: C57BL/6J male mice; experiment: Effect on intestinal wet weight in normal mice (FIG. 1); assay type: in vivo, mouse; conditions: once daily sc 270 nmol/kg (liraglutide iv 200 ug/kg), sacrificed on day 3, vs. vehicle
Description: Mice were sacrificed on day 3 and the wet weight of the small intestine was quantified. GLP-2 active peptides show significant enhancement of the small intestinal weight. […] N=6 animals / grp. *p < 0.05 vs. vehicle
C57BL/6J male mice (Charles River, Italy, ~8 weeks) are randomly allocated to the treatment group based on the baseline body weights. Animals are given free access to food and water during the whole duration of the study. Mice are dosed daily with the test compounds via subcutaneous injection. […] The abdominal cavity will be opened and the intestinal tissue is excised carefully to avoid perforation. Tissue from the upper small intestine (15 cm segment from the pylorus) is collected. The bowel is cleaned by flushing through with ice cold PBS to remove any feces.

[4] = molecular target: T1, mouse GLP1 receptor (Mus musculus, UniProt O35659); experiment: cAMP accumulation assay (HTRF), functional agonism of mouse GLP1 receptor in HEK cells; assay type: cell-based; conditions: HEK cells transiently transfected, 45 min 37° C.; for Emax: HEK293, read-out: Mouse GLP-1 R agonist cAMP Emax; for EC50: read-out: Mouse GLP-1 R agonist cAMP pEC50 (converted)
T1 construct: expressed in transfected cells; host or cells: HEK cells, transient transfection with GeneJuice
T1 sequence (O35659 22-463): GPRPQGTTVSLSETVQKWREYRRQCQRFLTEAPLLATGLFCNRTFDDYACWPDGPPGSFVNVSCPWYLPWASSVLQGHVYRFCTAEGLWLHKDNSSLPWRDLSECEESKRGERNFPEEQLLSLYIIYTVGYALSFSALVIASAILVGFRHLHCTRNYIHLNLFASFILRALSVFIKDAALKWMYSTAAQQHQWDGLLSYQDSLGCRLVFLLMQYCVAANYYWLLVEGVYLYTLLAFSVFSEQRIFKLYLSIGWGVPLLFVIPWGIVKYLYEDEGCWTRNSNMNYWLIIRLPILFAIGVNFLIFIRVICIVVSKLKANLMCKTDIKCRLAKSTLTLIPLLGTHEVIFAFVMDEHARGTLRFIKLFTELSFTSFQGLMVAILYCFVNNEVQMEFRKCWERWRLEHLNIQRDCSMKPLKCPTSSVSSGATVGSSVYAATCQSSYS

[5] = molecular target: T2, human GLP1 receptor (Homo sapiens, UniProt P43220); experiment: cAMP accumulation assay (HTRF), functional agonism of human GLP1 receptor in HEK cells; assay type: cell-based; conditions: HEK cells, human GLP1 receptor BacMam, 45 min 37° C.; for Emax: HEK293, read-out: Human GLP-1R agonist cAMP Emax; for EC50: read-out: Human GLP-1R agonist cAMP pEC50 (converted)
T2 construct: expressed in transfected cells; host or cells: HEK cells, BacMam virus transduction
T2 sequence (P43220 24-463): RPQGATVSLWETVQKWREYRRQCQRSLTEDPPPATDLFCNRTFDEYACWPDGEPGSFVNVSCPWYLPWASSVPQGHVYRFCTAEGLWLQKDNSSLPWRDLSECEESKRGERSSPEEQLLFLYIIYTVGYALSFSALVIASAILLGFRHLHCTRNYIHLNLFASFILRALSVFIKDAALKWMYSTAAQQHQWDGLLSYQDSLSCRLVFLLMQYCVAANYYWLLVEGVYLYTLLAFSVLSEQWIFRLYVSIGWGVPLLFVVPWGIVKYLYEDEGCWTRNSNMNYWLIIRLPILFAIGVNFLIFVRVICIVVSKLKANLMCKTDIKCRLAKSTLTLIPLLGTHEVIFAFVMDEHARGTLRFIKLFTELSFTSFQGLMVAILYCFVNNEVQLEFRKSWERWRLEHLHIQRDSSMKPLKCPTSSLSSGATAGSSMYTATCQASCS

[6] = molecular target: T3, human GLP2 receptor (Homo sapiens, UniProt O95838); experiment: cAMP accumulation assay (HTRF), functional agonism of human GLP2 receptor in HEK cells; conditions: for Emax: HEK293, read-out: Human GLP-2R agonist cAMP Emax;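 as to all read-outs here: HEK cells transduced via BacMam to express human GLP2 receptor, agonist-stimulated cAMP measured by HTRF after 45 min at 37 °C in HBSS with 0.5 mM IBMX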
T3 sequence (O95838 1-553): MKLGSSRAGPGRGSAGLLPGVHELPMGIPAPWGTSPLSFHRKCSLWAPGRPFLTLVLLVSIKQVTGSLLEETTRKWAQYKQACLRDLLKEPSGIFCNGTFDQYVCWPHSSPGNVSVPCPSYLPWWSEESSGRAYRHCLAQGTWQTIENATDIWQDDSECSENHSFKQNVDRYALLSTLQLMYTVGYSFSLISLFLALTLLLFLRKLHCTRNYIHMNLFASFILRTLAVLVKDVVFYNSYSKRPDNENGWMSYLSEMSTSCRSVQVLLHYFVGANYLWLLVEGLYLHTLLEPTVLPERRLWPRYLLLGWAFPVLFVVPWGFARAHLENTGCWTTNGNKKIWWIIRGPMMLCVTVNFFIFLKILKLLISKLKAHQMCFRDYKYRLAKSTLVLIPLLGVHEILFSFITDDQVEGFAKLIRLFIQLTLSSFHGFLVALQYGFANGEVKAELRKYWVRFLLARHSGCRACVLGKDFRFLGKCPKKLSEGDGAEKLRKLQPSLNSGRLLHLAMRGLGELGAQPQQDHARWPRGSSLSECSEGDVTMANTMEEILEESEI

[7] = molecular target: T4, mouse GLP2 receptor (Mus musculus, UniProt Q5IXF8); experiment: cAMP accumulation assay (HTRF), functional agonism of mouse GLP2 receptor in HEK cells; assay type: cell-based; conditions: HEK cells transiently transfected, 45 min 37° C.; for Emax: HEK293, read-out: Mouse GLP-2R agonist cAMP Emax; for EC50: read-out: Mouse GLP-2R agonist cAMP pEC50 (converted)
T4 construct: expressed in transfected cells; host or cells: HEK cells, transient transfection with GeneJuice
T4 sequence (Q5IXF8 1-512): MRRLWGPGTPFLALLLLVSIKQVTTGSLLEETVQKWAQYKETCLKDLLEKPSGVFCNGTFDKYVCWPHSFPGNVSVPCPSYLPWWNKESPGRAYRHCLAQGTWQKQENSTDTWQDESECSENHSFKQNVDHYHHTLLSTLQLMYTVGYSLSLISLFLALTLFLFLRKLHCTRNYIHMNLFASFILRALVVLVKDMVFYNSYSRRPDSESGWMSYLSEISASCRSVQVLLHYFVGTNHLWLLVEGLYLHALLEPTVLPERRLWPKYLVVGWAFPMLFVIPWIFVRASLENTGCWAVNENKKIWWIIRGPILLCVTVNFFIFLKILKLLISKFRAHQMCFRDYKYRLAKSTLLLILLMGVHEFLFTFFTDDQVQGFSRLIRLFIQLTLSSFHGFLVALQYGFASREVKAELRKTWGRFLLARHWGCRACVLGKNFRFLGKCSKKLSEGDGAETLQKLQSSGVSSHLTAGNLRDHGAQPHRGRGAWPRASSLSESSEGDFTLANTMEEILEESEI

C=CCOC(=O)NCCCC[C@H](NC(=O)[C@H](CC(C)C)NC(=O)[C@H](CC(=O)O)NC(=O)[C@H](CC(C)C)NC(=O)[C@@H](NC(=O)[C@@H](NC(=O)[C@@H](Cc1ccccc1)NC(=O)[C@H](CCCC)NC(=O)[C@H](CCC(=O)O)NC(=O)[C@H](CC(=O)O)NC(=O)[C@H](CO)NC(=O)[C@H](Cc1ccccc1)NC(=O)[C@H](CO)NC(=O)CNC(=O)[C@H](Cc1nn[nH]n1)NC(=O)C(C)(C)C(=O)NCCc1c[nH]cn1)[C@@H](C)O)[C@@H](C)CC)C(=O)N[C@@H](C)C(=O)N[C@@H](C)C(=O)N[C@@H](CCCCN)C(=O)N[C@@H](CC(=O)O)C(=O)N[C@@H](Cc1ccccc1)C(=O)N[C@H](C(=O)N[C@@H](CC(N)=O)C(=O)N[C@@H](Cc1c[nH]c2ccccc12)C(=O)N[C@@H](CC(C)C)C(=O)N[C@H](C(=O)N[C@@H](CCC(N)=O)C(=O)N[C@H](C(=O)N[C@@H](CCCCN)C(=O)N[C@H](C(=O)N[C@H](C(=O)N[C@@H](CC(=O)O)C(N)=O)[C@@H](C)O)[C@@H](C)CC)[C@@H](C)O)[C@@H](C)CC)[C@@H](C)CC [Example 1] ({Malonyl(2,2-Me2,histaminyl)}-[Ala(1H-tetrazol-5-yl)]GSFSDE[Nle][dF]TILDLK(Alloc)AAKDFINWLIQTKITD-NH2)
peak blood glucose concentration in OGTT [1]: significantly reduced | enhancement of small bowel wet weight (over vehicle) as a function of dose [2]: greater maximal enhancements in small intestinal wet weight compared to Teduglutide; also recorded: dose dependent enhancements in the wet weight of the small intestine | wet weight of the small intestine [3]: superior enhancements in intestinal weight compared to Teduglutide; also recorded: Significant enhancement of intestinal wet weight | Emax [4]: 95.9% | EC50 [4]: 3.16 nM | Emax [5]: 94.1% | EC50 [5]: 3.16 nM | EC50 [6]: 0.01 nM | Emax [6]: 102% | Emax [7]: 102% | EC50 [7]: 0.2 nM

CC[C@H](C)[C@H](NC(=O)[C@H](Cc1ccccc1)NC(=O)[C@H](CC(=O)O)NC(=O)[C@H](CCCNC(=N)N)NC(=O)[C@H](C)NC(=O)[C@H](C)NC(=O)[C@H](CC(C)C)NC(=O)[C@H](CC(N)=O)NC(=O)[C@H](CC(=O)O)NC(=O)[C@H](CC(C)C)NC(=O)[C@@H](NC(=O)[C@@H](NC(=O)[C@H](CC(N)=O)NC(=O)[C@H](CCSC)NC(=O)[C@H](CCC(=O)O)NC(=O)[C@H](CC(=O)O)NC(=O)[C@H](CO)NC(=O)[C@H](Cc1ccccc1)NC(=O)[C@H](CO)NC(=O)CNC(=O)[C@H](CC(=O)O)NC(=O)CNC(=O)[C@@H](N)Cc1c[nH]cn1)[C@@H](C)O)[C@@H](C)CC)C(=O)N[C@@H](CC(N)=O)C(=O)N[C@@H](Cc1c[nH]c2ccccc12)C(=O)N[C@@H](CC(C)C)C(=O)N[C@H](C(=O)N[C@@H](CCC(N)=O)C(=O)N[C@H](C(=O)N[C@@H](CCCCN)C(=O)N[C@H](C(=O)N[C@H](C(=O)N[C@@H](CC(=O)O)C(=O)O)[C@@H](C)O)[C@@H](C)CC)[C@@H](C)O)[C@@H](C)CC [Teduglutide, reference compound]
enhancement of small bowel wet weight (over vehicle) as a function of dose [2]: dose dependent enhancements in the wet weight of the small intestine | wet weight of the small intestine [3]: Significant enhancement of intestinal wet weight | Emax [4]: 1% | EC50 [4]: > 794 nM | Emax [5]: 60.3% | EC50 [5]: 316 nM | Emax [6]: 101% | Emax [7]: 100% | EC50 [7]: 0.00794 nM
